Legend:
[1] = tested on: EDG2-overexpressing cardiomyocytes; assay: Shortening measurements (contractility) in single isolated cardiomyocytes after Ad-EDG2-GFP gene transfer; type: cell-based, rabbit
Method: (§1) Contractility of infected cardiomyocytes was measured by an electro-optical monitoring system connected to online digitalized assessment of amplitude and velocity of shortening and of relaxation. Transgene-positive cardiomyocytes were identified by co-expression of GFP under fluorescent light. After the contraction amplitude reached stability, increasing concentrations of isoproterenol were applied at constant concentrations of lysophosphatidic acid (LPA; 10^−5 mol/l); or increasing LPA concentrations were added to constant concentrations of isoproterenol (10^−8 mol/l).
(§2) In order to investigate the effects of EDG2 on cardiomyocyte contractility, fractional shortening and velocity of shortening in single, isolated cardiomyocytes from failing hearts after ex vivo gene transfer was measured.
(§3) Single calcium-tolerant ventricular cardiomyocytes were isolated from failing White New Zealand rabbit hearts. Briefly, the hearts were perfused and digested with collagenase. The isolated cardiomyocytes were cultured in modified M199 on laminin-precoated dishes (5–10 μg/cm^2) at a density of 1.5×10^5 cells per cm^2 (at 5% CO2 and 37° C.). For contraction experiments, the cells were infected with adenovirus (multiplicity of infection (moi) 1 pfu/cell) 5 hours after plating. 50–60% of the infected cardiomyocytes expressed the transgene at this titer.

[2] = target: T1, human EDG2 (Homo sapiens, UniProt Q92633); conditions: HEK293 cells expressing the human EDG2 protein; LPA concentration dependent; cited from earlier work
T1 construct: host or cells: HEK293 cells expressing human EDG2

[3] = tested on: control GFP cardiomyocytes; assay: Shortening measurements (contractility) in single isolated cardiomyocytes after Ad-GFP gene transfer (control); type: cell-based, rabbit; conditions: increasing concentrations of LPA after prestimulation with isoproterenol 10^-8 mol/l; control GFP group; FIG. 2
Method: as §1, §2, §3

T1 sequence (Q92633 whole entry): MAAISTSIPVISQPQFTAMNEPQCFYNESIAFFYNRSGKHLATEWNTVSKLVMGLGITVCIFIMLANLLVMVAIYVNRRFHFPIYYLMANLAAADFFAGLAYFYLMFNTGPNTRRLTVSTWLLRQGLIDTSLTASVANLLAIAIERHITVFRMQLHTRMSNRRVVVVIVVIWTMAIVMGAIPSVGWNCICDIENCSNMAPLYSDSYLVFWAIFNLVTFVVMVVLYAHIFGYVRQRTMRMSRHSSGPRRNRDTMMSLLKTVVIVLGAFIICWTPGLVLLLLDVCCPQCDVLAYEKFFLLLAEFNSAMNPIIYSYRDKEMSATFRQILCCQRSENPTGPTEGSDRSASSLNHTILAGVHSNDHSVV

CC(C)NCC(O)c1ccc(O)c(O)c1 (stereo not drawn) [isoproterenol]
inotropic effect (fractional shortening) ([1]; increasing concentrations of isoproterenol at constant LPA 10^-5 mol/l, EDG2-overexpressing versus control, FIG. 1): significantly lower positively inotropic effect

lysophosphatidic acid [LPA]
response in serum response element reporter gene assay [2]: elevated response
effect on basal contractility of cardiomyocytes ([1]; LPA 10^-5 mol/l, isolated cardiomyocytes from failing hearts): does not alter basal contractility
effect on contractility of cardiomyocytes ([1]; absence of prestimulation with isoproterenol): no effect on the contractility
inotropic effect (fractional shortening) ([1]; increasing concentrations of LPA after prestimulation with isoproterenol 10^-8 mol/l, FIG. 2): significant negatively inotropic effect
inotropic effect (fractional shortening) [3]: no effect

Reference: patent US7169612B2, “Use of EDG2 receptor in an animal model of heart failure” (Sanofi-Aventis Deutschland GmbH, priority 2002, dated 2007)
